Experimental data reported in patent US7097988B1 (ADVANCED RESEARCH AND TECHNOLOGY INSTITUTE, dated 2006).

Assays:
[1] = target: T1, μ-opioid receptor encoded by MOR-1 (inhibition of adenylyl cyclase) (Rattus norvegicus, UniProt P33535, V245I); assay: Forskolin-stimulated cAMP levels in COS-7 cells expressing MOR-1; format: cell-based; settings: 100 nM DAGO, 10 μM forskolin, transfected cells, p<0.05
T1 construct: A 1.4-kilobase HindIII fragment encompassing the open reading frame from the cDNA encoding MOR-1 was cloned; expressed in transfected cells; host or cells: COS-7
T1 sequence (P33535 whole entry V245I, the tested form may be a part): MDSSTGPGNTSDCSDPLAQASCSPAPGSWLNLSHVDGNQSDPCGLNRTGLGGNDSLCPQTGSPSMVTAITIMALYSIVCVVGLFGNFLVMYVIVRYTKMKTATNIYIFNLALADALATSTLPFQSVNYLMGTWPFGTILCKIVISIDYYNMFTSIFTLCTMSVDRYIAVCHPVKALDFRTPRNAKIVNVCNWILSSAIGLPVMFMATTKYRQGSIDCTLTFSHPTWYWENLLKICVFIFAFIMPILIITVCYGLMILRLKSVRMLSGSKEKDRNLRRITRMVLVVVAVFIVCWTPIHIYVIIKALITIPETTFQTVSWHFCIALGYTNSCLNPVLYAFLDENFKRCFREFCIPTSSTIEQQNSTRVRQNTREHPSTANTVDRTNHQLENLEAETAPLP

[2] = target: T2, mu opioid receptor (Rattus norvegicus, UniProt P33535, V245I); format: biochemical; settings: 10 μM DAMGO
T2 construct: expressed in transfected cells
T2 sequence (P33535 whole entry V245I): as the sequence (P33535 whole entry V245I, the tested form may be a part) above

[3] = target: T3, human μ opioid receptor coupled to G protein-activated K+ channel (Homo sapiens, UniProt P35372); format: cell-based
T3 construct: Messenger RNAs encoding both proteins (Chen and Yu, 1994) were generated by in vitro transcription and injected into Xenopus oocytes; expressed in transfected cells; host or cells: Xenopus laevis oocytes (mRNA injection)
T3 sequence (P35372 whole entry): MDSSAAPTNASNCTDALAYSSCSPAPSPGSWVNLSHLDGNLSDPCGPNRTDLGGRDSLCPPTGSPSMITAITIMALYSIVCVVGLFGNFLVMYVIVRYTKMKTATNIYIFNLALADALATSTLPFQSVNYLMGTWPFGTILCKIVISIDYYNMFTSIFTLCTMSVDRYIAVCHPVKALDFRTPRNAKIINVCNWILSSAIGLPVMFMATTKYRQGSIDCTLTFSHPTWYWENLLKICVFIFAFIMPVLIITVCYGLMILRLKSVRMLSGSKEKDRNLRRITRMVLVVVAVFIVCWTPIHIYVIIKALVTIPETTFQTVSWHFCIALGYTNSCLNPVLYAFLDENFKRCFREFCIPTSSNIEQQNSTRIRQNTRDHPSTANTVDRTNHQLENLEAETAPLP

[4] = target: T4, rat μ opioid receptor (Rattus norvegicus, UniProt P33535, V245I); assay: Saturation binding of [3H]DAMGO, membranes of CHO cells stably expressing rat μ opioid receptor (Example VII)
T4 construct: A plasmid containing a 1.4 kb cDNA for the rat μ opioid receptor in a mammalian expression vector pRc/CMV has been described; expressed in transfected cells
T4 sequence (P33535 whole entry V245I): as the sequence (P33535 whole entry V245I, the tested form may be a part) above

[5] = target: T5, rat μ opioid receptor coupled to G protein-activated K+ channel (Rattus norvegicus, UniProt P33535, V245I); format: cell-based
T5 construct: A cDNA clone, MOR-1, containing the protein coding region of a rat μ opioid receptor has been described; expressed in transfected cells; host or cells: Xenopus oocytes (mRNA injection)
T5 sequence (P33535 whole entry V245I): as the sequence (P33535 whole entry V245I, the tested form may be a part) above

[6] = target: T6, novel member of the opioid receptor gene family (SEQ ID NO: 17) (Rattus norvegicus, UniProt P35370); format: cell-based
T6 construct: mRNA of this clone was synthesized by in vitro transcription and coinjected into Xenopus oocytes; expressed in transfected cells; host or cells: Xenopus oocytes (mRNA injection)
T6 sequence (P35370 whole entry): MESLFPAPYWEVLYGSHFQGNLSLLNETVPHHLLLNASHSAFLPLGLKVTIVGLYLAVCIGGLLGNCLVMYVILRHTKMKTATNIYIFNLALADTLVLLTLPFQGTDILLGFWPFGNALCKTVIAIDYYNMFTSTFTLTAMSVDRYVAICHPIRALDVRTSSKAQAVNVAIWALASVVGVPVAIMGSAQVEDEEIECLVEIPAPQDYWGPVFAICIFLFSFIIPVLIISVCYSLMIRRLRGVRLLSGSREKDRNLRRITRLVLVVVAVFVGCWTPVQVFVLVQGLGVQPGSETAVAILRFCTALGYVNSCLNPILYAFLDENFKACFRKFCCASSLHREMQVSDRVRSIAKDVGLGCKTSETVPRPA

[7] = target: T7, mu opioid receptor / voltage-activated calcium channel (Rattus norvegicus, UniProt P33535, V245I); assay: Barium currents in Xenopus oocytes coexpressing voltage-activated calcium channel and mu opioid receptor; format: cell-based; settings: 1 μM DAMGO for 5 min, entire activation voltage range
T7 construct: one cDNA clone contained an open reading frame of 1194 bp, encoding a protein of 398 amino acids; expressed in transfected cells; host or cells: Xenopus oocytes (plasmid microinjection)
T7 sequence (P33535 whole entry V245I): as the sequence (P33535 whole entry V245I, the tested form may be a part) above

[8] = target: human μ opioid receptor (Homo sapiens, UniProt P35372)
Sequence of human μ opioid receptor (P35372 whole entry): as the sequence (P35372 whole entry) above

[9] = target: T8, rat μ opioid receptor (inhibition of adenylyl cyclase) (Rattus norvegicus, UniProt P33535, V245I)
T8 sequence (P33535 whole entry V245I): as the sequence (P33535 whole entry V245I, the tested form may be a part) above

[10] = target: cloned rat μ receptor (Rattus norvegicus, UniProt P33535, V245I); settings: previously reported; cited from earlier work
Sequence of cloned rat μ receptor (P33535 whole entry V245I): as the sequence (P33535 whole entry V245I, the tested form may be a part) above

[11] = target: T8, rat μ opioid receptor (inhibition of adenylyl cyclase); assay: Cyclic AMP assay in transfected CHO cells, naive or chronically morphine-treated; settings: for DAMGO/control (forskolin + DAMGO vs forskolin only cAMP): 1 μM DAMGO, 2 μM forskolin; for Intracellular cAMP level, Forskolin + DAMGO: forskolin 2 μM, DAMGO 1 μM
[12] = target: cloned human μ receptor (Homo sapiens, UniProt P35372); assay: Saturation binding of [3H]DAMGO, COS-7 membranes expressing cloned human μ receptor (Example XII); set-up: the cDNA containing the open reading frame of the receptor was cloned downstream of the human cytomegalovirus promoter in the mammalian expression vector pcDNA3; expressed in transfected cells; host or cells: COS-7 (transient)
Sequence of cloned human μ receptor (P35372 whole entry): as the sequence (P35372 whole entry) above

[13] = cells treated with 1 μM morphine for 24 hours

Compound: C[C@@H](NC(=O)[C@@H](N)Cc1ccc(O)cc1)C(=O)NCC(=O)N(C)[C@@H](Cc1ccccc1)C(=O)NCCO [DAMGO, [D-Ala^2, N-Me-Phe^4, Gly-ol^5]-enkephalin]
- reduction of cAMP levels from control [1]: 18.1±2.5%
- increase of GTPase activity [2]: 30%
- membrane current upon receptor activation (in words) [3]: an inward current was observed
- Bmax [4]: ~630 fmol/mg membrane protein
- membrane current upon DAMGO exposure (in words) [5]: produced an inward membrane current
- induction of potassium conductance (in words) [6]: no potassium conductance was induced
- reduction in barium currents through the calcium channel [7]: over 80%
- Bmax [8]: 381±25 fmol/mg of membrane protein
- inhibition [9]: ~60%
- Bmax [10]: 444 fmol/mg protein
- effect on intracellular cAMP level in non-transfected parental CHO cells [11]: had no effect
- DAMGO/control (forskolin + DAMGO vs forskolin only cAMP) [11, 13]: 42.4%
- Intracellular cAMP level, Forskolin + DAMGO [11, 13]: 38.9 ± 1.4 fmol/1 × 10^3 cells
- DAMGO/control (forskolin + DAMGO vs forskolin only cAMP) ([11]; naive cells): 71.9%
- Intracellular cAMP level, Forskolin + DAMGO ([11]; naive cells): 25.6 ± 0.3 fmol/1 × 10^3 cells
- Bmax [12]: 232 fmol/mg
